Source: PubChem BioAssay (NCI)
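1) Cells in 96-well plates. 2) Compound, 48 h, 5 concentrations. 3) Linear interpolation between surrounding doses. 4) Unreached endpoint = highest concentration. The concentration for 50% growth inhibition is given as GI50. TGI is the concentration that stops growth completely.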

What was measured:
Assay in all cases: growth of human tumour cells (NCI), 48 h
EKVX NSCLC = system: EKVX NSCLC
HCC-2998 colon = system: HCC-2998 colon
HOP-62 NSCLC = system: HOP-62 NSCLC
HOP-92 NSCLC = system: HOP-92 NSCLC
NCI/ADR-RES ovarian = system: NCI/ADR-RES ovarian
OVCAR-4 ovarian = system: OVCAR-4 ovarian
RPMI-8226 leukemia = system: RPMI-8226 leukemia
UO-31 renal = system: UO-31 renal

| Structure (SMILES) | GI50 (EKVX NSCLC) [µM] | TGI (EKVX NSCLC) [µM] | GI50 (HCC-2998 colon) [µM] | TGI (HCC-2998 colon) [µM] | GI50 (HOP-62 NSCLC) [µM] | TGI (HOP-62 NSCLC) [µM] | GI50 (HOP-92 NSCLC) [µM] | TGI (HOP-92 NSCLC) [µM] | GI50 (NCI/ADR-RES ovarian) [µM] | TGI (NCI/ADR-RES ovarian) [µM] | GI50 (OVCAR-4 ovarian) [µM] | TGI (OVCAR-4 ovarian) [µM] | GI50 (RPMI-8226 leukemia) [µM] | TGI (RPMI-8226 leukemia) [µM] | GI50 (UO-31 renal) [µM] | TGI (UO-31 renal) [µM] |
| --- | --- | --- | --- | --- | --- | --- | --- | --- | --- | --- | --- | --- | --- | --- | --- | --- |
| O=c1c2c3c(sc2n2c(-c4cc(-c5ccccc5)no4)nnc2n1Cc1ccccc1)CCCC3 | 8.63 | > 67.6 | 20.7 | > 76.6 | 14.8 | 57 | 6.66 | > 100 | 30.2 | > 100 | 19.2 | > 100 | 4.23 | > 48.8 | 27.1 | > 100 |
| N#Cc1ncc(-c2ccc(C(F)(F)F)cc2)c(NCc2cc(C(F)(F)F)cc(C(F)(F)F)c2)n1 | – | – | 4.17 | > 100 | 4.73 | 39.2 | 2.14 | 5.74 | 3.23 | 65.8 | 3.33 | > 100 | 2.29 | 5.87 | 2.89 | 54.4 |
| CC(C)Nc1ccc(Nc2ccccc2)cc1 | 12.8 | 44.7 | 25.3 | > 100 | 23.6 | 66.9 | 12 | 30 | 9.8 | 65.3 | – | – | 3.68 | 19.5 | 14.1 | 64.9 |
| CC(C)(O)C#Cc1ccc(/C=C/C(=O)c2ccccc2)s1 | 17.9 | 32 | 16.6 | 30.7 | – | – | 13.6 | 27.1 | 18.3 | 39 | 17.1 | 39 | 3.07 | 11.5 | 14.5 | 27.6 |
| Cc1cc2cc3cc(C)c(N(C)C)cc3[n+](C)c2cc1N(C)C | – | – | 3.45 | 16.7 | 6.03 | 24.3 | 2.3 | 11.1 | 22.4 | > 100 | 2.83 | 34.2 | 4.54 | > 100 | 5.05 | 70.7 |
| N#Cc1cccc(OCc2nc(N)nc(N)c2-c2ccc(Cl)c(Cl)c2)c1 | – | – | 4.11 | > 100 | 4.44 | > 100 | 1.82 | 9.06 | 1.19 | > 100 | > 100 | > 100 | 4.65 | > 100 | 3.23 | > 100 |
